# ChEMBL document CHEMBL3507680, “University of Dundee, Gates Library screen for HepG2 cell viability”
# Experiment: Human HepG2 cell viability assay in 384 well format
# Format: toxicity, cell-based
# Design: dose 125 nL, time 70.5 hour; cytotoxicity at 70.5 h: concentration not given beside the values
# Settings: HepG2 cells, read-out: Inhibition
row,SMILES,cytotoxicity at 70.5 h [%]
1,CC(=O)N1CCCN(C(=O)NCc2ccc(-c3ccn[nH]3)cc2)CC1,-4.56
2,CCN(CC)C(=O)Cn1c(=O)n(Cc2ccco2)c2ncccc21,-3.1
3,Cc1ccc(-c2nc(CN3CCn4c(C)nnc4C3)co2)cc1,-6.98
4,O=C(c1ccn(-c2cccc(F)c2)n1)N1CCN(CCO)CC1,-5.78
5,COC(=O)CNC(=O)c1nc(Br)sc1C(C)C,42.9
6,CC(C)CCN1CCN(Cc2nc(C(C)C)no2)CC1,-0.333
7,CCOCC1CN(S(=O)(=O)N(C)C)Cc2cnn(C)c21 (stereo unspecified),-6.39
8,NC(=O)c1c(SCCN2CCOCC2)sc2c(O)cc(=O)[nH]c12,10.5
9,Cc1ncc(CN2CC[C@@](C)(O)[C@H](Oc3cccc(F)c3)C2)cn1,14.8
10,Cc1noc(C(C)C)c1C(=O)NCC(c1cccs1)N(C)C (stereo unspecified),-8.63
11,COc1ccc(CNC(=O)N2CCCC(Nc3ccccc3)C2)cn1 (stereo unspecified),-7.17
12,CCC(CN1CCOCC1)n1cncc1-c1ccc2c(c1)CCCN2C (stereo unspecified),-6.78
13,CCCn1[nH]cc/c1=N\C(=O)CN1CCc2cnc(C(C)C)nc2C1,-3.5
14,O=C1CCC2(CCCN(CCc3ccccc3)C2)N1Cc1cccnc1 (stereo unspecified),-25
15,COc1ncccc1N(C)C(=O)Cn1cc(-c2ccccc2)nn1,-4.75
16,O=C(NCCc1cccs1)N1CCC[C@H]1CO,-6.62
17,COCc1cc(N2CCN(C3CCCCC3)CC2)n2nccc2n1,-4.81
18,CC(C)Cc1noc(CN2CCOC(Cn3cncn3)C2)n1 (stereo unspecified),-5.1
19,Brc1cccnc1OC1CCNCC1,23.3
20,c1cc(CN2CCCn3nnc(COCC4CC4)c3C2)ccn1,-15.6
21,Cc1csc(CN2CCC[C@]3(C[C@@H](OCC4CC4)CO3)C2)n1,24.4
22,CC(C)n1cnnc1CN(C)Cc1cnc(-c2ccco2)nc1,-1.59
23,Cc1noc(C)c1CS(=O)(=O)CC(=O)N1c2ccccc2CC1C (stereo unspecified),-12

row,SMILES,cytotoxicity at 70.5 h [%]
1,O=C(c1ccccc1)N1CCC2(CC1)CC(Oc1ccccc1)CO2 (stereo unspecified),-11.5
2,CN(C)C(=O)COCC1C[C@@H]2OCCN(Cc3ccco3)[C@H]2C1 (stereo partly specified),-15.5
3,CCCS(=O)(=O)N1CCOC2(CCCN(c3ccc(C)nn3)C2)C1 (stereo unspecified),-6.62
4,CCn1c(CN(C)C(C)CSC)nc2c(F)cccc21 (stereo unspecified),-3.45
5,Cc1ccccc1OCC(O)CN1CCC(Cn2cccn2)CC1 (stereo unspecified),2.37
6,CN(C)C(=O)CN1CCc2ncnc(NC3CCC3)c2CC1,0.00388
7,Cc1cc(-c2cnn(CCNC(=O)Cc3ccccn3)c2C2CC2)on1,-3.25
8,c1csc(-c2nc(CNC3CCc4ncnn4C3)cs2)c1 (stereo unspecified),-16.5
9,O=C(O)C1(Cc2cc(-c3ccc(F)cc3F)no2)CCOCC1,20.5
10,Cc1ccc(N2CCCN(C(=O)CC3C=CCC3)CC2)nn1 (stereo unspecified),-4.92
11,CC(C)NC(=O)c1nc2c(s1)CCCN2Cc1ccccc1,-6.15
12,CCCC(=O)N1CCCN(C(=O)Nc2ccc(C)s2)CC1,-4.08
13,O=C1CCC2(CCN(Cc3ccoc3)CC2)N1OCc1ccccc1F,-7.61
14,O=C1CCCC2=C1C(c1ccccc1F)Nc1nonc1N2 (stereo unspecified),-3.65
15,N#Cc1cccc(SCCS(N)(=O)=O)c1,-6.9
16,O=C(CCCc1ccccn1)N1CCSC2(CCCCC2)C1,18.8
17,Cc1sc2ncc(-c3ccnc(NC4CCN(C)CC4)n3)c(=O)n2c1C,-2.25
18,Cn1cnnc1Sc1ccc(NC(=O)C2CC2)cc1Cl,-9.39
19,CN(C)c1ncc(I)c(C2CCCCN2S(C)(=O)=O)n1 (stereo unspecified),-3.68
20,CO[C@@H](C(=O)NC1CCOCC1)c1ccccc1,9.39
21,CC(C)CC(=O)N1C[C@H]2CCCN(S(=O)(=O)c3ccc(Cl)s3)[C@H]2C1,14.6
22,Cc1cc(CN2CCC(CNC(=O)C3(c4ccccc4)CC3)C2)[nH]n1 (stereo unspecified),6.56
23,CN1C[C@H](c2ccccc2)[C@H]2CN(C(=O)Cc3cccc(O)c3)CC[C@H]21,-2.25
